Test results reported in ChEMBL document CHEMBL1201862, “PubChem BioAssay data set” (2004).
The source made the active and inactive calls.

Assays:
[1] = biological target: T1, Type-1 angiotensin II receptor (Homo sapiens, UniProt P30556); experiment: agonist activity at AGTR1 – cell-based, uHTS hits, selectivity assay for APJ receptor agonist project, dose response (AID 488865); type: functional;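 note: beta-arrestin recruitment to AT1 measured by enzyme fragment complementation luminescence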
T1 sequence (P30556 whole entry): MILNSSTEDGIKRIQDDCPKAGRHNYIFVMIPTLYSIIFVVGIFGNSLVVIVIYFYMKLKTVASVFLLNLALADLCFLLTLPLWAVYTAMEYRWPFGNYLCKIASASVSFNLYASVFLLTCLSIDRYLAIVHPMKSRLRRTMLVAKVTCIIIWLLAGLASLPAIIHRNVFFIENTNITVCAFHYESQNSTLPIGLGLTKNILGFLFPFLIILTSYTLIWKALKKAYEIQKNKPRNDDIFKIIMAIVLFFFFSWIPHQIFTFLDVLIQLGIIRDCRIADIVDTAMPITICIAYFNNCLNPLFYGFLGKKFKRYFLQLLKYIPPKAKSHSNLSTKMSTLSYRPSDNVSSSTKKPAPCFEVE

Cytochrome P450 3A4 = Cytochrome P450 3A4 (Homo sapiens, UniProt P08684); conditions: Potency;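 note: confirmatory qHTS run detecting inhibitors and substrates of CYP3A4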
[2] = biological target: Epstein-Barr nuclear antigen 1 (Epstein-Barr virus (strain B95-8) (HHV-4) (Human herpesvirus 4), UniProt P03211); experiment: inhibition of EBV nuclear antigen 1 DNA binding – biochemical, fluorescence polarization, 1536-well, dose response (AID 2381); set-up: species or system human gammaherpesvirus 4;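 note: fluorescence polarization of a Cy5 DNA probe bound by EBNA-1 protein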
[3] = biological target: Lytic switch protein BZLF1 (Epstein-Barr virus (strain B95-8) (HHV-4) (Human herpesvirus 4), UniProt P03206); experiment: inhibition of BZLF1 ZTA DNA binding – biochemical, fluorescence polarization, Epstein-Barr virus, 1536-well, counter-screen for EBNA-1 inhibitor project, dose response (AID 2377); set-up: species or system human gammaherpesvirus 4;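 note: fluorescence polarization of Cy5-labelled ZRE DNA probe bound by purified Zta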
Vero [4] = experiment: Vero cell viability after compound exposure – synthesized analogs, set II, cytotoxicity control for West Nile virus antiviral project, SAR follow-up (AID 2402); type: functional; conditions: Chlorocebus sabaeus
[5] = A Cell Based Assay for the Identification of Probe candidate Compounds with Anti- Venezuelan Equine Encephalitis virus. [Related pubchem assays: 2409, 2419, 1621, 2238, 2405, 2024, 2065, 2402, 2414, 1635, 1650, 2244 ]; type: functional
Cytochrome P450 2C9 = Cytochrome P450 2C9 (Homo sapiens, UniProt P11712); conditions: Potency
[6] = biological target: T2, Intestinal-type alkaline phosphatase (Homo sapiens, UniProt P09923); experiment: Dose Response confirmation of uHTS hits from a small molecule inhibitors of human intestinal alkaline phosphatase via a luminescent assay. [Related pubchem assays (depositor defined):AID2544, AID2574]; type: functional
[7] = biological target: T2, Intestinal-type alkaline phosphatase; experiment: human intestinal alkaline phosphatase activators, dose response, biochemical, luminescence, uHTS hits (AID 463120); type: functional
[8] = biological target: T3, Voltage-gated N-type calcium channel alpha-1B subunit/Amyloid beta A4 precursor protein-binding family A member 1 (Homo sapiens, UniProt Q00975+Q02410); type: protein assay
[9] = biological target: T3, Voltage-gated N-type calcium channel alpha-1B subunit/Amyloid beta A4 precursor protein-binding family A member 1; type: protein assay; remark: listed apart in the source
[10] = biological target: DNA dC->dU-editing enzyme APOBEC-3A (Homo sapiens, UniProt P31941); experiment: A3A deaminase inhibition for selectivity – biochemical, dose response (AID 504722); type: functional
[11] = biological target: DNA dC->dU-editing enzyme APOBEC-3G (Homo sapiens, UniProt Q9HC16); experiment: Dose Response confirmation of small molecule APOBEC3G DNA Deaminase Inhibitors via a fluorescence-based single-stranded DNA deaminase assay. [Related pubchem assays (depositor defined):AID493012, AID493028]; type: functional
[12] = viability of uninfected HEp-2 cells – cell-based, HTS, cytotoxicity control for RSV inhibitor project, dose response (AID 2410); type: functional; conditions: human respiratory syncytial virus
Vero [13] = experiment: mammalian cell viability reduction – secondary assay, cytotoxicity control for West Nile virus antiviral project, dose response (AID 1650); type: functional; conditions: Chlorocebus sabaeus
Melanocortin receptor 4 = Melanocortin receptor 4 (Homo sapiens, UniProt P32245); experiment: inhibitors of MC4R cAMP signaling – cell-based, TR-FRET, biased antagonists, dose response (AID 602298); type: functional;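 note: antagonist potency against agonist-stimulated cAMP production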
[14] = cAMP pathway inhibition in counterscreen cell line – TR-FRET cAMP detection, counter-screen for MC4R biased antagonist project, dose response (AID 602305); type: functional, cell-based;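 note: U2OS cells stimulated with forskolin near its EC80 as the cAMP inducer; potency is for inhibition of forskolin-stimulated cAMP signaling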
cells [15] = experiment: cells
[16] = biological target: T3, Voltage-gated N-type calcium channel alpha-1B subunit/Amyloid beta A4 precursor protein-binding family A member 1; experiment: disruptors of Mint-PDZ/N-type channel peptide interaction – biochemical, HTRF, set 2, SAR follow-up (AID 434980); type: functional
[17] = biological target: T3, Voltage-gated N-type calcium channel alpha-1B subunit/Amyloid beta A4 precursor protein-binding family A member 1; experiment: disruptors of Mint-PDZ/N-type channel peptide interaction – biochemical, HTRF, SAR follow-up (AID 2489); type: functional
[18] = biological target: 5-hydroxytryptamine receptor 1E (Homo sapiens, UniProt P28566); experiment: Counterscreen assay for S1P3 antagonists: Dose response cell-based high throughput screening assay to identify antagonists of the 5-Hydroxytryptamine Receptor Subtype 1E (5HT1E). [Related pubchem assays: 1429, 485 ]; type: functional
[19] = biological target: Sphingosine 1-phosphate receptor 3 (Homo sapiens, UniProt Q99500); experiment: Dose response cell-based high throughput screening assay for antagonists of the Sphingosine 1-Phosphate Receptor 3 (S1P3). [Related pubchem assays: 1429, 485 ]; type: functional
Estrogen receptor beta [20] = biological target: T4, Estrogen receptor beta (Homo sapiens, UniProt Q92731);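 note: recombinant ER-beta bound to coactivator SRC1 peptide in presence of estradiol agonist; inhibitors block coactivator peptide binding and lower the FRET signal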
Estrogen receptor beta [21] = biological target: T4, Estrogen receptor beta; experiment: blockers of SRC-3 recruitment to ERβ – biochemical, ELISA, streptavidin-HRP readout, orthogonal assay, confirmation (AID 1060)
[22] = THP-1 cell cytotoxicity, dose response, cytotoxicity control for non-replicating M. tuberculosis project (AID 489025); type: functional
[23] = HepG2 cell cytotoxicity, dose response, cytotoxicity control for non-replicating M. tuberculosis project (AID 489018); type: functional; conditions: Mycobacterium tuberculosis
cells [24] = type: functional
[25] = biological target: T5, Ubiquitin-conjugating enzyme E2 N (Homo sapiens, UniProt P61088); type: functional;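 note: Dose-response confirmation in a TR-FRET assay detecting UBC13-driven polyubiquitin chain formation, inhibition measured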
T5 sequence (P61088 whole entry): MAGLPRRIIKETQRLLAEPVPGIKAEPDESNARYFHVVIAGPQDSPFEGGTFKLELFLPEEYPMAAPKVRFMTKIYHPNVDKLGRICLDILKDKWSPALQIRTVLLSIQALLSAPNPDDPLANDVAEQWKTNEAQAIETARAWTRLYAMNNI

[26] = biological target: Alkaline phosphatase, placental type (Homo sapiens, UniProt P05187); experiment: human placental alkaline phosphatase inhibition – biochemical, luminescence, confirmation (AID 1512); type: functional
Vero [27] = experiment: cells; type: functional, cell-based; conditions: Chlorocebus sabaeus
[28] = biological target: Glyceraldehyde-3-phosphate dehydrogenase (Homo sapiens, UniProt P04406)
[29] = biological target: T6, Alkaline phosphatase, tissue-nonspecific isozyme (Homo sapiens, UniProt P05186); experiment: potency against alkaline phosphatase TNAP – biochemical, luminescent, dose response, SAR follow-up (AID 1056)
T6 sequence (P05186 whole entry): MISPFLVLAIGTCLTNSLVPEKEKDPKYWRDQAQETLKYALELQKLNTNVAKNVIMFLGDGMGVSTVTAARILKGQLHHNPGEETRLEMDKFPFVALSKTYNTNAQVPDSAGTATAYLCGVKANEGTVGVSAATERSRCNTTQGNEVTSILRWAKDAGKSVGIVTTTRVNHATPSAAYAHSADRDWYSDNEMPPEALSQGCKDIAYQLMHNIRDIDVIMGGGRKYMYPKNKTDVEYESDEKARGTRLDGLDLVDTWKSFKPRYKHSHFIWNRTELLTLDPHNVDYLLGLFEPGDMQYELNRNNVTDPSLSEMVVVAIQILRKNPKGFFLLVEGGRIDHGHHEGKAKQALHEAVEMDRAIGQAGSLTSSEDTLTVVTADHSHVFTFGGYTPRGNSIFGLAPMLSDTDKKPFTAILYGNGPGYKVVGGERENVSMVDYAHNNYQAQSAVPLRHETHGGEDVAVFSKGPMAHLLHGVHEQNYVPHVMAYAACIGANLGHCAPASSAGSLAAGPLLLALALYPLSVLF

[30] = biological target: Glucose-6-phosphate 1-dehydrogenase (Homo sapiens, UniProt P11413); experiment: inhibition of Homo sapiens G6PD, dose series – biochemical, fluorescence, selectivity assay for P. falciparum G6PD inhibitor project, dose response (AID 504792); type: functional
HEK293 [31] = experiment: inhibition of NOD1-driven NF-kB reporter – cell-based, luminescence, uHTS, primary screen (AID 1578); type: functional; conditions: Homo sapiens
HEK293 [32] = experiment: cells; type: functional, cell-based; conditions: Homo sapiens
HEK293 [33] = experiment: cells; type: functional, cell-based; conditions: Homo sapiens; remark: listed apart in the source
[34] = biological target: Nucleotide-binding oligomerization domain-containing protein 2 (Homo sapiens, UniProt Q9HC29); experiment: inhibition of NOD2-driven NF-kB reporter – cell-based, luminescence, uHTS, HEK293 (AID 1566); type: functional
HEK293 [35] = experiment: NOD2 signaling inhibitors in MDP-stimulated cells, cell-based, uHTS, luminescence (AID 2001); type: functional; conditions: Homo sapiens
HEK293 [36] = experiment: cells; type: functional, cell-based; conditions: Homo sapiens; remark: listed apart in the source

T4 sequence (Q92731 whole entry): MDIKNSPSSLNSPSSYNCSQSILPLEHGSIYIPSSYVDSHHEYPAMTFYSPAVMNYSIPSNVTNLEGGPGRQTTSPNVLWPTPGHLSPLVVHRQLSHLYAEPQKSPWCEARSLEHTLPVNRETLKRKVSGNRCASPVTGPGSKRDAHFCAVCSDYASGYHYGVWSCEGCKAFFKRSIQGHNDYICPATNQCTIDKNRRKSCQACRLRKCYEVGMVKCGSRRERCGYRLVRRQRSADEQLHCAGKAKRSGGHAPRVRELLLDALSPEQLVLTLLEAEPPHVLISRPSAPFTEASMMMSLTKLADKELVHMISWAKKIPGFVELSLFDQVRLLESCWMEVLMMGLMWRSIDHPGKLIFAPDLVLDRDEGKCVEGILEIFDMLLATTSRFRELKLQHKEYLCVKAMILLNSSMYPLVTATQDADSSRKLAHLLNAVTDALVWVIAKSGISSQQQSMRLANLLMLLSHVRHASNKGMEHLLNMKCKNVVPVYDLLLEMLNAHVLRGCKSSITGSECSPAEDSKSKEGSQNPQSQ
T3 sequence (Q00975 whole entry): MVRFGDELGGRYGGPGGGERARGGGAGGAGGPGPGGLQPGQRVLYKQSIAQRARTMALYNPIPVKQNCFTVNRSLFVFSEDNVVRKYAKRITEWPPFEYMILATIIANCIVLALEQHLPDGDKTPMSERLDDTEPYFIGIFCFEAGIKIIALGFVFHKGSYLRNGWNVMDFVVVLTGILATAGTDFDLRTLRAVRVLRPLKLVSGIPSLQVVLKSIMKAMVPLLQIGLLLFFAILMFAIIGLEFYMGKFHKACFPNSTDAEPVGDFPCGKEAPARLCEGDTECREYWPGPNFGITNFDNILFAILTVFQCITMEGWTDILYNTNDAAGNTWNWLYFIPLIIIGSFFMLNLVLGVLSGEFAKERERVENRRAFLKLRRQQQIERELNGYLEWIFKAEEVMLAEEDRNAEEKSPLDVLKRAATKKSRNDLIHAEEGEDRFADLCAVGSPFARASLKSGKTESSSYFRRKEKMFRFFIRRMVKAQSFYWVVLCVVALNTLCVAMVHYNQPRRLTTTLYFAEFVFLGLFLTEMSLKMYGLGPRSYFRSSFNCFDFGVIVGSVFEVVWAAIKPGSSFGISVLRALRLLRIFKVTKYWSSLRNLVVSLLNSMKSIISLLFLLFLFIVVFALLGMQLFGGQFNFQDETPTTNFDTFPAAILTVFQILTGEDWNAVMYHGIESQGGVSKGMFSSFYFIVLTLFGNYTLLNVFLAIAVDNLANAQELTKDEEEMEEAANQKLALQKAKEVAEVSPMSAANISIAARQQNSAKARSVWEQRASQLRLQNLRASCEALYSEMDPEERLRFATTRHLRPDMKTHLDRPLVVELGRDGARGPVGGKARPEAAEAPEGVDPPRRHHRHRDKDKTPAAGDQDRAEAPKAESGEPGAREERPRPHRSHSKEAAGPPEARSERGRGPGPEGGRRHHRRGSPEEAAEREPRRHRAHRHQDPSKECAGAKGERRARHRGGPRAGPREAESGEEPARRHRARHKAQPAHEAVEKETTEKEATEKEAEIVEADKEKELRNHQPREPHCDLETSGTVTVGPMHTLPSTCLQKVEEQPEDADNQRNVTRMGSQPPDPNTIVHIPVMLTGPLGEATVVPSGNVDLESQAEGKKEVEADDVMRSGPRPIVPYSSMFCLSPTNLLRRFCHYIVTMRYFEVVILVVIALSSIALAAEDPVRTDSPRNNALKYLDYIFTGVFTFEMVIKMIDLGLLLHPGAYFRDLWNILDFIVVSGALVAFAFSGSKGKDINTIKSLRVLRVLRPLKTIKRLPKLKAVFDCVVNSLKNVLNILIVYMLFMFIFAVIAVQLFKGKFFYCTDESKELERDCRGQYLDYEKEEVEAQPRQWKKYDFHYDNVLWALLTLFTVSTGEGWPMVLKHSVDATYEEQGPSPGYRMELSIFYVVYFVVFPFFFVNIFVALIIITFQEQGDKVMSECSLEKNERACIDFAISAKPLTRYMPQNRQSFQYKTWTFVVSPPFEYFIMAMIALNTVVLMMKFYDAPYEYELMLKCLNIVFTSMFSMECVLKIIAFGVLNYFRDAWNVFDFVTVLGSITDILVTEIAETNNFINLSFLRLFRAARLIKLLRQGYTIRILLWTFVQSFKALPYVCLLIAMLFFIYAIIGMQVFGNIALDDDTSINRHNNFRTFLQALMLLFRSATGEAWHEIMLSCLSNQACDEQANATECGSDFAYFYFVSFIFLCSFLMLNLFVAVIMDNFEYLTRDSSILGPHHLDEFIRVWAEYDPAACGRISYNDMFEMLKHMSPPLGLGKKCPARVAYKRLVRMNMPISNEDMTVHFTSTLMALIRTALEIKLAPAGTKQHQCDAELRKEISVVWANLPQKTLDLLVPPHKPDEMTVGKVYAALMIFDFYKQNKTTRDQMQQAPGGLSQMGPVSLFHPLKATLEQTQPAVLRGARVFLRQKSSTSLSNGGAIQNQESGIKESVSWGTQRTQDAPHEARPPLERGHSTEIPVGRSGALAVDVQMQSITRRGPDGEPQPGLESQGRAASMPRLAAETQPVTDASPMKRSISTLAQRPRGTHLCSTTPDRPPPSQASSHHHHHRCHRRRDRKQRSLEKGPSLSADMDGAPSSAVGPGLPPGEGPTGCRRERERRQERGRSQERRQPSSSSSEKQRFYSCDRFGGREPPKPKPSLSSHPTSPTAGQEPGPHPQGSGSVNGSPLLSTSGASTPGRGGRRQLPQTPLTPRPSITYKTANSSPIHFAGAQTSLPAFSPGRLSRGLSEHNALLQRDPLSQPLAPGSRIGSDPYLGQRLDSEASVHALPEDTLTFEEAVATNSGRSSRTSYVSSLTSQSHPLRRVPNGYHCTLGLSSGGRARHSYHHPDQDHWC
T3 sequence (Q02410 whole entry): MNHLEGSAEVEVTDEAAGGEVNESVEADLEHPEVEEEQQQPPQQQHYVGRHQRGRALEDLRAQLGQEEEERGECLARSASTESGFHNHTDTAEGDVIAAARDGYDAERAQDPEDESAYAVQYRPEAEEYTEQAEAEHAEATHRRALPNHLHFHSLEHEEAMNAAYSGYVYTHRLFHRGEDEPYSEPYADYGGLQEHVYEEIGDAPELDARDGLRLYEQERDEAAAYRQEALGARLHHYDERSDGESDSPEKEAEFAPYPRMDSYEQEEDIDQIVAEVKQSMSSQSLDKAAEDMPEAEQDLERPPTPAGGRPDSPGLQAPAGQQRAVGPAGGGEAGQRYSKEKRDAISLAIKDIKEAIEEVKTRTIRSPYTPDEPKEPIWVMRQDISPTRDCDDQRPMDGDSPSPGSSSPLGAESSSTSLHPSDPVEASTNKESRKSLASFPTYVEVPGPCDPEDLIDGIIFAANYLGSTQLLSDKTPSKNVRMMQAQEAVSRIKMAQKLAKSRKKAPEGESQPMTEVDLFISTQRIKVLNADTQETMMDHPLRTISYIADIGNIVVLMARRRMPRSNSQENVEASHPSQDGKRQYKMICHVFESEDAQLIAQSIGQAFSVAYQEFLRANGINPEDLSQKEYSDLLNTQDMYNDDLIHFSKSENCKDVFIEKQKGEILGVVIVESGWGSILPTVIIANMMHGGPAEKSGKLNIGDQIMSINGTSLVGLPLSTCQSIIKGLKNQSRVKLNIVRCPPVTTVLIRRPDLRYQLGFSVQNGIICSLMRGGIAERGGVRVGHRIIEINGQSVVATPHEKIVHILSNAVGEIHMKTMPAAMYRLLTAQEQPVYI
Lytic switch protein BZLF1, sequence (P03206 whole entry): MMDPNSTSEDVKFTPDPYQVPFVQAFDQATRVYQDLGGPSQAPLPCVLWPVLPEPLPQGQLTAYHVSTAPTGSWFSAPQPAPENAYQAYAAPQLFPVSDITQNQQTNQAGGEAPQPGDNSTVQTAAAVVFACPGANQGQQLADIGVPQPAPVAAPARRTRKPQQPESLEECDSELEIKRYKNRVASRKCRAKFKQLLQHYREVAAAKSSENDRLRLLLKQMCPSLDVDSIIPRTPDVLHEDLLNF
Cytochrome P450 2C9, sequence (P11712 whole entry): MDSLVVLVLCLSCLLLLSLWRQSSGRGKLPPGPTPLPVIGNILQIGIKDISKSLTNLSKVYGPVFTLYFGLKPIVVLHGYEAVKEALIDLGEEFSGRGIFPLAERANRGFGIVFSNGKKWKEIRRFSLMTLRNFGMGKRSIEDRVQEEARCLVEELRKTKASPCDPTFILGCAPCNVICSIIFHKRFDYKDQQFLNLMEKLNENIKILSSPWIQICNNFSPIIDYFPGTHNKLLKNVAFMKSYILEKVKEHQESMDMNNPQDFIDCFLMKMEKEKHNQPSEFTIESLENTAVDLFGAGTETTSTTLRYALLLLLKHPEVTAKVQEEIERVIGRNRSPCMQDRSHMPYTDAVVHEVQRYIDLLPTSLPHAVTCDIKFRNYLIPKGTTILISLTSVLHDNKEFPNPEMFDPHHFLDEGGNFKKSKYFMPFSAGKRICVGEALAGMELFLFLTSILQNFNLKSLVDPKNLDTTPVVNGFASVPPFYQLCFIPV
DNA dC->dU-editing enzyme APOBEC-3G, sequence (Q9HC16 whole entry): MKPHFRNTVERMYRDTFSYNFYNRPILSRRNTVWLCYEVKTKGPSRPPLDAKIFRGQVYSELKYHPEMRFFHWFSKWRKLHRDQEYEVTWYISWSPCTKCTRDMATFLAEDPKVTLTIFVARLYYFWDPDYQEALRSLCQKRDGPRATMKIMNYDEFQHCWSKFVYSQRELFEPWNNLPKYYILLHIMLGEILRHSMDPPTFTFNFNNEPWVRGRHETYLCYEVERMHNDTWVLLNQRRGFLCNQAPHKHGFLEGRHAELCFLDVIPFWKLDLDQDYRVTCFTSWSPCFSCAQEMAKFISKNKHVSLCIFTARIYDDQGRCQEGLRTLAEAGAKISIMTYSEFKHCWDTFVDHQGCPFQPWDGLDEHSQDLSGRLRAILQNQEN
DNA dC->dU-editing enzyme APOBEC-3A, sequence (P31941 whole entry): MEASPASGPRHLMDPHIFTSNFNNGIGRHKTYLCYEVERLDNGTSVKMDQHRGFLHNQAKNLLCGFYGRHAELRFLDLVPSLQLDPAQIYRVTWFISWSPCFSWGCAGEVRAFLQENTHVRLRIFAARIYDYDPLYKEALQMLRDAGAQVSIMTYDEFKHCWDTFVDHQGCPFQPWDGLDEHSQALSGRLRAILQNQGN

COc1ccc2nc(O)c(C(c3nnnn3CC3CCCO3)N3CCc4ccccc4C3)cc2c1 (stereo not given)
EC50 [1]: > 100 µM (inactive)

Cc1nc(N2CCOCC2)c2nc(-c3ccccc3)n(C(C)CN(C)C)c2n1 (stereo not given)
AC50 (Cytochrome P450 3A4): 20 µM (inconclusive)

NS(=O)(=O)c1ccc(NC(=O)COC(=O)/C(=C/c2cccs2)c2cccs2)cc1
IC50 [2]: 17.1 µM (not active)
IC50 [3]: > 111 µM (not active)

COc1ccc(-c2csc(N(CCCBr)C(=O)c3ccccc3Cl)n2)cc1
CC50 (Vero [4]): 78.2 µM (active)
IC50 [5]: > 66.6 µM (active)

CC(=O)c1ccc(OC2C=CC(c3ccc(Cl)cc3)OC2CO)cc1 (stereo not given)
AC50 (Cytochrome P450 2C9): 5.01 µM (inconclusive)

CCc1nnc(NC(=O)CSc2nnc(C)c(=O)n2N)s1
IC50 [6]: > 100 µM (inactive)
EC50 [7]: > 100 µM (inactive)

COc1cccc2cc(C(=O)Nc3ccc(S(=O)(=O)NCC4CCCO4)cc3)c(=O)oc12 (stereo not given)
IC50 [8]: > 56.8 µM (not active)
IC50 [9]: > 50 µM (inactive)

CCN(CC)S(=O)(=O)c1cccc(-c2n[nH]c(=S)n2C)c1
IC50 [10]: > 100 µM (inactive)
IC50 [11]: 4.94 µM (active)

Cc1ccc(Nc2nc(N/N=C/c3c[nH]c4ccccc34)nc(N3CCOCC3)n2)cc1
CC50 [12]: 18.2 µM (active)
CC50 (Vero [13]): 12.9 µM (active)
IC50 (Melanocortin receptor 4): > 64.6 µM (inactive)
IC50 [14]: > 64.6 µM (inactive)
IC50 (cells [15]): 20.5 µM (active)

Cc1ccc(N2C(=O)C3C(C2=O)C2(C)C=CC3(C)O2)cc1 (stereo not given)
IC50 [16]: > 56.8 µM (inactive)
IC50 [17]: 11.5 µM (active)

CCc1ccccc1NC1c2ccccc2C(=O)N1Cc1ccco1 (stereo not given)
IC50 [18]: 15.6 µM (not active)
IC50 [19]: > 50 µM (not active)

Nc1c(C(=O)Nc2ccc3c(c2)OCCO3)nnn1Cc1cccc(Cl)c1
IC50 [2]: 9.25 µM (active)
IC50 [3]: > 111 µM (not active)

O=C1NC(=O)N(c2ccccc2)C(=O)/C1=C/c1ccc(Sc2ccccc2)o1
IC50 [8]: 35.9 µM (active)
IC50 [9]: 34.4 µM (active)

N=c1c(-c2nc3ccccc3[nH]2)cc(C(=O)c2cccs2)nn1-c1ccc(Cl)cc1
IC50 (Estrogen receptor beta [20]): > 50 µM (not active)
IC50 (Estrogen receptor beta [21]): > 50 µM (not active)

CC(C)C[C@H]1CN=C(Nc2ccccc2)N1CCCC1CCCCC1
CC50 [22]: 16.2 µM (active)
CC50 [23]: > 20 µM (active)
IC50 (cells [24]): 40.1 µM (active)

CC(C)[C@]1(NC(=O)[C@H]2C=C3c4cccc5[nH]cc(c45)C[C@H]3N(C)C2)O[C@@]2(O)[C@H]3CCCN3C(=O)[C@H](Cc3ccccc3)N2C1=O
AC50 (Cytochrome P450 2C9): 7.94 µM (inconclusive)

COc1ccc(OCC(=O)NNC(=O)c2ccccn2)cc1
IC50 [25]: > 20 µM (inactive)
IC50 [26]: > 100 µM (inactive)
IC50 (cells [24]): 9.61 µM (active)

O=C(CCNC(=O)c1ccc(Cl)cc1)NC1CCCc2ccccc21 (stereo not given)
CC50 [12]: 40.2 µM (active)
IC50 (Vero [27]): 19.8 µM (active)
IC50 (cells [15]): 13.4 µM (active)

COc1ccccc1-c1nnc(SCC(=O)Nc2ccc(C)c(C)c2)[nH]1
IC50 [28]: > 100 µM (not active)
IC50 [26]: > 100 µM (inactive)
IC50 [29]: > 100 µM (inactive)

CNC(=O)[C@@H]1C[C@H]1[C@@H](NC(=O)CNC(=O)OCc1ccccc1)c1ccccc1
AC50 (Cytochrome P450 3A4): 15.8 µM (inconclusive)

Nn1c(SCC(=O)Nc2cccnc2Cl)nnc1-c1ccccc1
IC50 [10]: > 100 µM (inactive)
IC50 [30]: > 80 µM (inactive)
IC50 [11]: 13.3 µM (active)

Cc1ccc(NC(=O)C(C)c2ccc([N+](=O)[O-])cc2)cc1Cl (stereo not given)
IC50 [18]: 13.4 µM (not active)
IC50 [19]: 11.3 µM (not active)

COc1cc(/C=C/C(=O)c2ccc(C)cc2)ccc1OCC#N
EC50 (HEK293 [31]): 4.61 µM (active)
IC50 (HEK293 [32]): 4.56 µM (active)
IC50 (HEK293 [33]): > 20 µM (inactive)
EC50 [34]: > 20 µM (inactive)
IC50 (HEK293 [35]): 5.83 µM (active)
IC50 (HEK293 [36]): > 20 µM (inactive)

c1coc(-c2nnc3sc(Cc4cccs4)nn23)c1
IC50 (Estrogen receptor beta [20]): < 1.56 µM (active)
IC50 (Estrogen receptor beta [21]): 4.41 µM (not active)
